Test results as given in ChEMBL document CHEMBL1134993, “Synthesis of [difluoro-(3-alkenylphenyl)-methyl]-phosphonic acids on non-crosslinked polystyrene and their evaluation as inhibitors of PTP1B” (Bioorg Med Chem Lett, 2002).
pIC50, pKi: −log10 of the molar value. Activity calls are given as the source filed them. No cut-off for these calls is given here.

Each compound was assayed against T1, Tyrosine-protein phosphatase non-receptor type 1 (Homo sapiens, UniProt P18031) (assay: Inhibitory concentration against Protein-tyrosine phosphatase 1B (PTP1B)).
T1 sequence (P18031 whole entry): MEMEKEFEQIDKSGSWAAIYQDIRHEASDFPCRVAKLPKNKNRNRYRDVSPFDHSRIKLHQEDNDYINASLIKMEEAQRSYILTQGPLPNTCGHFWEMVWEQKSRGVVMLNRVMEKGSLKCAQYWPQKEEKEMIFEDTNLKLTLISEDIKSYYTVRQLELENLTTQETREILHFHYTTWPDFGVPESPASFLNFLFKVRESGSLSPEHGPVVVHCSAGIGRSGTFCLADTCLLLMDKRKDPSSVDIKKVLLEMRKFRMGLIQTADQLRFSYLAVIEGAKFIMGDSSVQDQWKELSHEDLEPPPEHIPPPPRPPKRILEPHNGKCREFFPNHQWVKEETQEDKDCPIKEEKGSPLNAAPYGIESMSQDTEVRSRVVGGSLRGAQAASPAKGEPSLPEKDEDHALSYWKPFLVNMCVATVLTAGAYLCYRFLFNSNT

`C=CCOC(=O)/C=C\c1cccc(C(F)(F)P(=O)(O)O)c1` was tested. Which pIC50 did it give?
Its pIC50 is 1.91.

What follows are compounds tested against T1, Tyrosine-protein phosphatase non-receptor type 1 (assay: Binding affinity towards protein-tyrosine phosphatase 1B (PTP1B)).

With `C=CCOC(=O)/C=C\c1cccc(C(F)(F)P(=O)(O)O)c1` as the compound, how does the pKi read?
Its pKi is 2.10.

Each compound was assayed against T1, Tyrosine-protein phosphatase non-receptor type 1 (assay: Inhibitory concentration against protein-tyrosine phosphatase 1B (PTB 1B)).

`O=P(O)(O)C(F)(F)c1cccc(-c2ccccc2)c1` was tested. Which pIC50 did it give?
Its pIC50 is 4.82.

These compounds were tested against T2, Tyrosine-protein phosphatase non-receptor type 1 (Homo sapiens) (UniProt P18031) (assay: Compound was evaluated for its percent Inhibition of protein-tyrosine phosphatase 1B (PTP1B) at the concentration of 50 uM).
T2 sequence (whole entry): T1 sequence (P18031 whole entry)

How did the inhibition turn out when `COC(=O)/C=C\c1cccc(C(F)(F)P(=O)(O)O)c1` was run?
Its inhibition is 23%.

Which inhibition does the source give for `O=P(O)(O)C(F)(F)c1cccc(/C=C\C=C\c2ccccc2)c1` here?
Its inhibition is 70%.

How did the inhibition turn out when `C=CCOC(=O)/C=C\c1cccc(C(F)(F)P(=O)(O)O)c1` was run?
Its inhibition is 84%.

With `N#C/C=C\c1cccc(C(F)(F)P(=O)(O)O)c1` as the compound, how does the inhibition read?
Its inhibition is 45%.

How did the inhibition turn out when `CCOC(=O)/C=C\c1cccc(C(F)(F)P(=O)(O)O)c1` was run?
The inhibition was 53%.

Which inhibition does the source give for `O=P(O)(O)C(F)(F)c1cccc(/C=C\c2cccc3ccccc23)c1` here?
The inhibition was 60%.

With `O=C(/C=C\c1cccc(C(F)(F)P(=O)(O)O)c1)OCc1ccccc1` as the compound, how does the inhibition read?
The inhibition was 71%.

What follows are compounds tested against T2, Tyrosine-protein phosphatase non-receptor type 1 (Homo sapiens) (assay: Compound was evaluated for its percent Inhibition of protein-tyrosine phosphatase 1B (PTP1B) at the concentration of 50 uM; […]).

`CC/C=C\c1cccc(C(F)(F)P(=O)(O)O)c1` was tested. Which inhibition did it give?
Its inhibition is “inactive”.

For `O=P(O)(O)C(F)(F)c1cccc(/C=C\CCc2ccccc2)c1`, which inhibition is on record?
Its inhibition is “inactive”.

Which inhibition does the source give for `CN(C)C/C=C\c1cccc(C(F)(F)P(=O)(O)O)c1` here?
Its inhibition is “inactive”.

How did the inhibition turn out when `CC(C)=C/C=C\c1cccc(C(F)(F)P(=O)(O)O)c1` was run?
Its inhibition is “inactive”.

Which inhibition does the source give for `O=P(O)(O)C(F)(F)c1cccc(/C=C\Cl)c1` here?
The inhibition was “inactive”.

The compounds below were run against T2, Tyrosine-protein phosphatase non-receptor type 1 (Homo sapiens) (assay: Compound was evaluated for its percent Inhibition of protein-tyrosine phosphatase 1B (PTP1B) at the concentration of 50 uM; Showed little or no inhibition).

For `CCOc1ccc(/C=C\c2cccc(C(F)(F)P(=O)(O)O)c2)cc1`, which inhibition is on record?
The inhibition was “inactive”.

With `O=P(O)(O)C(F)(F)c1cccc(/C=C\c2ccc(F)cc2)c1` as the compound, how does the inhibition read?
Its inhibition is “inactive”.

For `O=P(O)(O)C(F)(F)c1cccc(/C=C\c2ccc(Br)cc2)c1`, which inhibition is on record?
The inhibition was “inactive”.

With `O=P(O)(O)C(F)(F)c1cccc(/C=C\c2ccc(Cl)cc2)c1` as the compound, how does the inhibition read?
Its inhibition is “inactive”.

Which inhibition does the source give for `O=P(O)(O)C(F)(F)c1cccc(/C=C\c2ccccc2)c1` here?
The inhibition was “inactive”.

With `O=[N+]([O-])c1ccc(/C=C\c2cccc(C(F)(F)P(=O)(O)O)c2)cc1` as the compound, how does the inhibition read?
The inhibition was “inactive”.

For `Cc1ccc(/C=C\c2cccc(C(F)(F)P(=O)(O)O)c2)cc1`, which inhibition is on record?
Its inhibition is “inactive”.

How did the inhibition turn out when `Cc1ccccc1/C=C\c1cccc(C(F)(F)P(=O)(O)O)c1` was run?
The inhibition was “inactive”.
